Laboratory results from patent US10945938B2, “Lactone-containing compositions for malodor elimination” (Takasago International Corporation, priority 2014, dated 2021).
Where “and” joins values, the source holds several entries; their conditions need not be identical. Equal values may be shown once.

Assays:
[1] = Methyl mercaptan suppression analysis by GC-PFPD, aqueous conditions (Examples 1-4); details: for Methyl Mercaptan Suppression (%): ethanol/deionized water, about 10 ppm methyl mercaptan sodium salt, room temperature 2 hours, replicate values; for suppression of the amount of methyl mercaptan (in words): lactone alone, 100 or 200 ppm, aqueous conditions, Tables 1-4
Source text: (§1) Methyl mercaptan suppression analysis was used to evaluate malodor elimination effects of the compounds. Methyl mercaptan is known to be a major oral malodor material. For example, methyl mercaptan is found in the oral cavity of halitosis patients and also found in malodor producing food products (e.g., garlic). A multipurpose sampler (MPS 2, Gerstel Inc, Baltimore Md.)—Gas Chromatography (6890N, Agilent Technologies Inc, Wilmington Del.) with the Pulsed Flame Photometric Detector (PFPD, model 5380, OI Analytical, College Station, Tx) was used for the methyl mercaptan analysis. 0.5% (w/v) sodium thiomethoxide, which is a sodium salt of methyl mercaptan (purchased from Aldrich chemical company, Inc. Allentown, Pa.) in deionized water was used as the methyl mercaptan stock solution, which was freshly prepared for every test day.
200 ppm or 100 ppm lactone (36 μl of 1% (200 ppm) or 0.5% (100 ppm) (w/v) of the test malodor eliminating compounds in 200 proof ethanol), 144 μl of 200 proof ethanol, and 1620 μl of deionized water were added into a 2 ml GC vial. The prepared vial was placed on a sample tray of the multipurpose sampler-GC-PFPD. 3.6 μl of methyl mercaptan stock solution was added in the GC vial using the multipurpose sampler, and the GC vial was left to sit at room temperature for 2 hours. 0.4 μl of the test solution was injected into the GC inlet (an Agilent tapered focus liner with glass wool was installed, split mode, 10:1 split ratio) using the multipurpose sampler. The carrier gas flow rate was 1.5 ml/min (in constant flow mode) and the Agilent DB-1MS UI column (L60 m×ID 0.250 mm×thickness 0.25 μm) was used for the analysis. […] The GC oven was held at 280° C. for 5 minutes. Ethanol alone was used as a blank control. The final concentration of test malodor eliminating compounds were 200 ppm or 100 ppm, and final methyl mercaptan sodium salt concentration was about 10 ppm.
Malodor (methyl mercaptan) suppression was calculated as follows: Malodor (methyl mercaptan) Suppression (%)=(GC area of blank control sample−GC area of test sample)/GC area of blank control sample×100.

[2] = Methyl mercaptan suppression analysis by GC-PFPD, non-aqueous (ethanol) conditions (Examples 5-9); details: for Methyl Mercaptan Suppression (%): 200 proof ethanol, 10 ppm methyl mercaptan sodium salt, room temperature 2 hours
Source text: as §1
For the screening test, 100 ppm lactone (20 μl of 0.5% of lactone in 200 proof ethanol (w/v)), 300 ppm lactone (30 μl of 1% of lactone in 200 proof ethanol (w/v)), 200 ppm phenolic compound (20 μl of 1% of phenolic compound in 200 proof ethanol (w/v)) and 300 ppm phenolic compound (30 μl of 1% of phenolic compound in 200 proof ethanol (w/v)) were tested. In addition, various combinations of a lactone and a phenolic compound were tested. The lactones and phenolic compounds were pipetted into 2 ml GC vials, and 200 proof ethanol was added up to 1000 μl. The prepared vial was placed on a sample tray of the multipurpose sampler-GC-PFPD. 2 μl methyl mercaptan stock solution was added in the GC vial utilizing the multipurpose sampler, and the vial was left to sit at room temperature for 2 hours. 0.4 μl of the test solution was injected into the GC inlet (an Agilent tapered focus liner with glass wool was installed, split mode, 10:1 split ratio) using the multipurpose sampler. The carrier gas flow rate was 1.5 ml/min (in constant flow mode) and the Agilent DB-1 MS UI column (L60 m×ID 0.250 mm×thickness 0.25 μm) was used for the analysis. The temperature of the GC oven started at 40° C. and after 5 minutes, the temperature was increased to 180° C. at a speed of 20° C./min, and subsequently to 280° C. at a speed of 40° C./min, which was held for 5 minutes.
200 proof ethanol alone was used as a blank control. The final concentration of the methyl mercaptan sodium salt was 10 ppm.
Malodor (methyl mercaptan) suppression was calculated as follows: Malodor (methyl mercaptan) Suppression (%)=(GC area of blank control sample−GC area of test sample)/GC area of blank control sample×100.

[3] = 200 ppm test compound alone, values of several testing sets
[4] = 300 ppm test compound alone, replicate values

SMILES	Methyl Mercaptan Suppression (%) ([1]; 100 ppm test compound alone)	suppression of the amount of methyl mercaptan (in words) [1]	Methyl Mercaptan Suppression (%) [2, 4]	also measured
O=C1C=CCO1 [2(5H) furanone]	97% and 95% and 100%	suppressed the amount of methyl mercaptan	–	–
CCCCOCc1ccc(O)c(OC)c1 [Hotact ®VBE, vanillyl butyl ether]	–	–	13% (2×) and 10%	Methyl Mercaptan Suppression (%) [2, 3]: 13% and 7% and 8% and 10% and 12% and 17%
CC1=CCC(=O)O1 [angelica lactone alpha]	47% and 31% and 69%	suppressed the amount of methyl mercaptan	32% and 22% and 30%	Methyl Mercaptan Suppression (%) ([1]; 200 ppm test compound alone): 94% and 93% and 86%
CC1C=CC(=O)O1 (stereo not drawn) [angelica lactone beta]	10% and 26% and 41%	suppressed the amount of methyl mercaptan	–	–
O=C1O[C@H]([C@@H](O)CO)C(O)=C1O [ascorbic acid, reference compound]	–	–	–	Methyl Mercaptan Suppression (%) [2, 3]: 11%; synergistic malodor suppression or elimination effect of the combination with a phenolic compound (in words) ([2]; ethanol conditions, combination compared with additive effect of single components): do not exhibit a synergistic malodor elimination effect when combined with phenolic compounds
C=CCc1ccc(O)c(OC)c1 [eugenol]	–	–	8% and 14% and 11%	–
COC(=O)c1ccccc1O [methyl salicylate]	–	–	9% and 10% and 8%	–
CC1=C2CCC(C)CC2OC1=O (stereo not shown) [mint lactone]	–	suppressed the amount of methyl mercaptan	–	Methyl Mercaptan Suppression (%) ([1]; 200 ppm test compound alone): 87% and 100% (2×)
